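1) Cells in 96-well plates. 2) Compound, 48 h, 5 concentrations. 3) Linear interpolation between surrounding doses. 4) Unreached endpoint = highest concentration. GI50: concentration for 50% inhibition of growth.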 The source made the active and inactive calls. Rule as the data show it: active = GI50 up to about 1.1 µM and inactive = higher.
Key:
Experiment in all cases: NCI-60 cell line screen, 48 h
RXF 393 = system: RXF 393
UACC-62 = system: UACC-62
T47D = system: T47D
HCT-116 = system: HCT-116
TK-10 = system: TK-10
SK-OV-3 = system: SK-OV-3
MCF7 = system: MCF7
SK-MEL-5 = system: SK-MEL-5
SR = system: SR
OVCAR-4 = system: OVCAR-4
EKVX = system: EKVX
MDA-MB-435 = system: MDA-MB-435
MOLT-4 = system: MOLT-4
LOX IMVI = system: LOX IMVI
A498 = system: A498
SK-MEL-2 = system: SK-MEL-2
K562 = system: K562
HCC 2998 = system: HCC 2998
NCI-H460 = system: NCI-H460
U-251 = system: U-251

Measured: GI50

OC1(c2ccccc2)CSC2=Nc3ccccc3C3CCN1N23 (stereo not given)
inactive: RXF 393 20.9 µM | UACC-62 18.7 µM | T47D 16.6 µM | HCT-116 29.3 µM | TK-10 22.3 µM | SK-OV-3 32.7 µM | MCF7 15.6 µM | SK-MEL-5 17.7 µM | SR 20 µM | OVCAR-4 23.1 µM | EKVX 3.89 µM | MDA-MB-435 17 µM | MOLT-4 30.5 µM | LOX IMVI 19 µM | A498 14.6 µM | SK-MEL-2 15.8 µM | K562 38.6 µM | HCC 2998 26.9 µM | NCI-H460 13.4 µM | U-251 14.9 µM

C/C(Cl)=N\OC(=O)Nc1ccc([N+](=O)[O-])cc1
inactive: RXF 393 16.8 µM | UACC-62 22.2 µM | T47D 9.48 µM | HCT-116 7.94 µM | TK-10 14.7 µM | SK-OV-3 13.3 µM | MCF7 3.08 µM | SK-MEL-5 17.4 µM | SR 6.79 µM | OVCAR-4 13.7 µM | EKVX 19.3 µM | MDA-MB-435 18.8 µM | MOLT-4 1.92 µM | LOX IMVI 5.36 µM | A498 15.3 µM | SK-MEL-2 17.5 µM | K562 2.02 µM | HCC 2998 15.6 µM | NCI-H460 18.7 µM | U-251 17.6 µM

COc1ccc(/N=N\c2c(N)nn3c(SC)c(C#N)c(N)nc23)cc1
inactive: RXF 393 6.47 µM | UACC-62 5.71 µM | T47D 1.85 µM | HCT-116 7.74 µM | TK-10 19.1 µM | SK-OV-3 19.5 µM | MCF7 2.4 µM | SK-MEL-5 16.1 µM | SR 2.44 µM | OVCAR-4 15.1 µM | EKVX 3.93 µM | MDA-MB-435 13.3 µM | MOLT-4 2.61 µM | LOX IMVI 1.74 µM | A498 11.1 µM | SK-MEL-2 2.76 µM | K562 2.16 µM | HCC 2998 3.96 µM | NCI-H460 15.8 µM | U-251 5.43 µM
